According to article PMC11721293 (JCI Insight, 2025):
Values joined by “and” are separate entries in the source; they are usually repeats but may differ in a detail not shown here. Identical values can stand only once. Like-named read-outs stand apart in the source and are kept apart here.

Tests used:
lysosomal compartment = test: LysoTracker staining of VeroTA6 cells
Procedure: (A) VeroTA6 cells were seeded
post treatment, the cells were stained with lysotracker (Thermofisher, L7528) and visualized under
the microscope (left). The fluorescence intensity was captured and quantified for each treatment
B), the significance was calculated using one-way ANOVA with Dunnett’s test with multiple
comparison to the DMSO control, and the P values are depicted as ns for P>0.05, ** for P <0.01,

SARS-CoV-2 = assay type: cell-based; design: TOA: unit not given here
[1] = test system: FTase (HDJ2 farnesylation); test: HDJ2 electrophoretic mobility shift (Western blot); assay type: cell-based; conditions: 24 h treatment
SARS-CoV-2-nLUC [2] = test: microbe, parasite or virus in culture; assay type: cell-based; conditions: for EC50: Severe acute respiratory syndrome coronavirus 2, Vero C1008, 24 h, Fig 1G, Fig 5B, read-out: EC50
in vitro = conditions: African green monkey
HEK293A2T2 cells = conditions: initial screening
Huh7 cells = conditions: initial screening
[3] = test system: VSV-SARS-CoV-2-S pseudovirus; test: microbe, parasite or virus in culture; assay type: cell-based; conditions: for EC50: read-out: EC50
SARS-CoV-2-nLUC [4] = assay type: cell-based; conditions: Nirmatrelvir 5 uM, Lonafarnib 0 uM
SARS-CoV-2-nLUC [5] = assay type: cell-based
[6] = test system: SARS-CoV-2 strain USA-WA1/2020; assay type: in vivo, mouse; conditions: mouse, in vivo
[7] = test system: SARS-CoV-2 strain USA-WA1/2020; assay type: in vivo, mouse; conditions: mouse, in vivo; remark: listed apart in the source
viral RdRp = viral RdRp (Severe acute respiratory syndrome coronavirus 2, UniProt P0DTD1); test: In vitro RdRp activity assay (RNA extension); assay type: biochemical, SARS-CoV-2; conditions: LNF 0.1, 1 and 10 μM; TEMPOL 100 μM

SMILES	CC50 (Huh7 cells) [µM]	Max % [3]	EC50 [3]	further results
CCN(CC)CCCC(C)Nc1ccnc2cc(Cl)ccc12 (stereo not drawn) [CQ, Chloroquine]				LysoTracker fluorescence intensity (lysosomal compartment; VeroTA6, 10 μM, 30 min): significant reduction in fluorescence intensity; Lysotracker (lysosomal compartment; sheet S5A, individual measurements): 560.723 and 174.035 and 160.899 and 432.593 and 438.73 and 246.495 and 247.855 and 602.458 and 376.298 and 321.5 and 378.198 and 326.501 and 374.374 and 217.144 and 290.704 and 270.841 and 377.374 and 275.759 and 524.267 and 701.544 and 422.374
COC(=O)[C@H](CCSC)NC(=O)c1ccc(NC[C@@H](N)CS)cc1-c1ccccc1 [FTI-277]				time-of-addition result (SARS-CoV-2): modest effect on the early stage of infection, while the efficacy was much higher in the late stage; TOA (SARS-CoV-2; treatment window (0,24)): 1.616 and 2.237 and 1.147 and 1.155 and 1.238 and 1.196 and 1.435; TOA (SARS-CoV-2; treatment window (2,4)): 73.8837 and 74.2661 and 52.3189 and 51.5089 and 53.0507 and 54.4857 and 76.2725 and 76.8029; TOA (SARS-CoV-2; treatment window (-2,0)): 151.258 and 149.655 and 121.084 and 123.07 and 140.174 and 141.115 and 96.719 and 94.1082; TOA (SARS-CoV-2; treatment window (-2,2)): 54.1321 and 53.7538 and 48.4664 and 48.121 and 49.0338 and 47.603 and 41.7688 and 40.1735; anti-FTase activity, HDJ2 shift [1]: weaker anti-FTase activity; Replication (SARS-CoV-2-nLUC [2]; FTI-277, log concentration 0.670941): 89.119 and 77.5271 and 84.1138 and 103.187; Replication (SARS-CoV-2-nLUC [2]; FTI-277, log concentration 1.273): 92.4526 and 80.5819 and 108.059 and 113.995; Replication (SARS-CoV-2-nLUC [2]; FTI-277, log concentration 1.87506): 83.8498 and 84.554 and 94.5905 and 116.747; Replication (SARS-CoV-2-nLUC [2]; FTI-277, log concentration -0.232149): 89.4553 and 85.664 and 88.5087 and 105.35; EC50 (SARS-CoV-2-nLUC [2]; VeroE6, 24 h): 110 µM; CC50 at 24 h (in vitro): 220 µM
Cc1nc[nH]c1CN1CCN(C(=O)N[C@@H](CC(C)C)C(=O)O)[C@@H](Cc2ccccc2)C1=O [GGTI2418]				effect on viral replication (SARS-CoV-2-nLUC [2]; VeroE6, 15 μM GGTI, 24 h): no effect on viral replication
CN1CCC(CN2c3ccccc3Sc3ccccc32)C1 (stereo not drawn) [NCGC00014482]	> 30			CC50 (HEK293A2T2 cells): > 30 µM
C(=C/c1ccccc1)/CN1CCN(C(c2ccccc2)c2ccccc2)CC1 [NCGC00015246]	22	65.8%	> 30 µM	
CN(C)CCCN1c2ccccc2Sc2ccccc21 [NCGC00015829]	18.4			CC50 (HEK293A2T2 cells): > 30 µM
CN1CCN(C(c2ccccc2)c2ccccc2)CC1 [NCGC00016421]	> 30	58.1%	25.2 µM	
CN1CCC[C@@H]1CCO[C@](C)(c1ccccc1)c1ccc(Cl)cc1 [NCGC00016710]	> 30			CC50 (HEK293A2T2 cells): > 30 µM
Cl.Cl.O=C(O)COCCN1CCN(C(c2ccccc2)c2ccc(Cl)cc2)CC1 (stereo not drawn) [NCGC00016949]	> 30	29.7%	> 30 µM	
OCCOCCN1CCN([C@@H](c2ccccc2)c2ccc(Cl)cc2)CC1 [NCGC00018255]	> 30	26.3%	> 100 µM	
CN1CCCN([C@@H](c2ccccc2)c2ccc(Cl)cc2)CC1 [NCGC00018271]	> 30			CC50 (HEK293A2T2 cells): > 30 µM
CN1CCN(C(c2ccccc2)c2ccc(Cl)cc2)CC1 (stereo not drawn) [NCGC00179384]				CC50 (HEK293A2T2 cells): > 30 µM
Cc1ccc(C(=CCN2CCCC2)c2cccc(C=CC(=O)O)n2)cc1 [NCGC00182053]			> 30 µM	
CC(CN(C)C)CN1c2ccccc2S(=O)(=O)c2ccccc21 (stereo not drawn) [NCGC00182075]			> 30 µM	
CN1CCC(=C2c3ccccc3CCc3cccnc32)CC1 [NCGC00182705]		45.5%	> 30 µM	
c1ccc2c(c1)Sc1ccccc1N2CC1CN2CCC1CC2 (stereo not drawn) [NCGC00183046]	26.3			CC50 (HEK293A2T2 cells): > 30 µM
O=C(CCCN1CCN(c2ccc(F)cc2)CC1)NC1c2ccccc2CSc2ccccc21 (stereo not drawn) [NCGC00183837]			> 30 µM	
CN1CCC(N(Cc2cccs2)c2ccccc2)CC1 [NCGC00183847]	> 30	64.0% and 54.6%	11.4 µM and 18.4 µM	CC50 (HEK293A2T2 cells): > 30 µM
Clc1ccc(C(c2ccccc2)N2CCNCC2)cc1 (stereo not drawn) [NCGC00245963]	> 30	99.5%		CC50 (HEK293A2T2 cells): > 30 µM
CN(C)CC/C=C1/c2ccccc2COc2ccc(CC(=O)O)cc21 [NCGC00263532]			> 30 µM	
CN1CCN([C@H](c2ccccc2)c2ccc(Cl)cc2)CC1 [NCGC00343774]	14.4	66.4%		CC50 (HEK293A2T2 cells): > 30 µM

SMILES	CC50 (Huh7 cells) [µM]	Max % [3]	EC50 [3]	further results
CN1CCN([C@@H](c2ccccc2)c2ccc(Cl)cc2)CC1 [NCGC00343775]	11.2	77.3%		CC50 (HEK293A2T2 cells): > 30 µM
Clc1ccc(C(c2ccccc2)N2CCNCC2)cc1 (stereo not drawn) [NCGC00345879]	28	100.0%	3 µM	
Clc1ccc(C(c2ccccc2)N2CCNCC2)cc1 (stereo not drawn) [NCGC00345880]	13.4	99.6% and 75.2%		CC50 (HEK293A2T2 cells): > 30 µM
COc1ccc(CN2CCN([C@@H](c3ccccc3)c3ccc(Cl)cc3)CC2)c(OC)c1 [NCGC00346845]	24.6	64.2%	22.5 µM	
CN1CCC(N(c2ccccc2)c2ccc(OC(C)(C)C)cc2)CC1 [NCGC00346851]	> 30	68.3%	14.9 µM	
Clc1ccc([C@H](c2ccccc2)N2CCN(C3CCCCC3)CC2)cc1 [NCGC00347039]	14.1	70.8%	4 µM	
CC(C)N1CCN([C@@H](c2ccccc2)c2ccc(Cl)cc2)CC1 [NCGC00347044]		90.9%	3.6 µM	
CC(=O)N1CCN([C@@H](c2ccccc2)c2ccc(Cl)cc2)CC1 [NCGC00347049]	> 30		> 100 µM	
FC(F)(F)CN1CCN([C@@H](c2ccccc2)c2ccc(Cl)cc2)CC1 [NCGC00351281]	> 30	21.1%	> 100 µM	
CN1CCN(C(c2ccc(Cl)cc2)c2ccc(Cl)cc2)CC1 [NCGC00351413]	12.9	67.9%	2.6 µM	
CCN1CCN(C(c2ccc(Cl)cc2)c2ccc(Cl)cc2)CC1 [NCGC00351414]	> 30	83.6%		CC50 (HEK293A2T2 cells): > 30 µM
CCN1CCN(C2c3ccccc3-c3ccc(Br)cc32)CC1 (stereo not drawn) [NCGC00351673]	> 30	77.7%	28.1 µM	
CN1CCC(N(c2ccccc2)c2ccccc2)CC1 [NCGC00351675]	> 30	17.1%	> 100 µM	
Clc1ccc(C(c2ccc(Cl)cc2)N2CCNCC2)cc1 [NCGC00354584]		100.0%	2 µM	
Clc1ccc(C(c2ccc(Cl)cc2)N2CCOCC2)cc1 [NCGC00354586]	> 30		> 100 µM	
C[C@@H]1O[C@@]2(CS1)CN1CCC2CC1 [NCGC00485995]			17.9 µM	
CC(C)(C)[C@H](NC(=O)C(F)(F)F)C(=O)N1C[C@H]2[C@@H]([C@H]1C(=O)N[C@H](C#N)C[C@@H]1CCNC1=O)C2(C)C [NRTV, nirmatrelvir]				Response (SARS-CoV-2-nLUC [4]): 21.0635 and 36.2768 and 23.2893; Response (SARS-CoV-2-nLUC [5]): 96.7462 and 94.1773 and 94.981; Response (SARS-CoV-2-nLUC [5]; Lonafarnib 0 uM, Nirmatrelvir 0.3125 uM, sheet S3B, replicates): 50.9786 and 35.7701 and 31.2174; Response (SARS-CoV-2-nLUC [5]; Lonafarnib 0 uM, Nirmatrelvir 0.625 uM, sheet S3B, replicates): 89.9445 and 77.1784 and 77.0959; Response (SARS-CoV-2-nLUC [5]; Lonafarnib 0 uM, Nirmatrelvir 2.5 uM, sheet S3B, replicates): 97.3124 and 96.7918 and 96.5986; Response (SARS-CoV-2-nLUC [5]; Lonafarnib 0 uM, Nirmatrelvir 5 uM, sheet S3B, replicates): 97.4859 and 97.2147 and 96.9835
CCC(CC)COC(=O)[C@H](C)N[P@](=O)(OC[C@H]1O[C@@](C#N)(c2ccc3c(N)ncnn23)[C@H](O)[C@@H]1O)Oc1ccccc1 [RDV, Remdesivir]				time-of-addition result (SARS-CoV-2): minimal effect when added for a limited duration at early time points, but showed maximum efficacy when it was added later after infection; composite clinical score [6]: much improved disease parameters; lung viral titer [7]: did not show much reduction in viral titers
CC1(C)CC(O)CC(C)(C)N1[O] [TEMPOL]				polymerase activity, primer extension (viral RdRp): inhibited
Cn1cncc1[C@@](N)(c1ccc(Cl)cc1)c1ccc2c(c1)c(-c1cccc(Cl)c1)cc(=O)n2C [Tipifarnib, tipifarnib]				time-of-addition result (SARS-CoV-2): modest effect on the early stage of infection, while the efficacy was much higher in the late stage; TOA (SARS-CoV-2; treatment window (0,2)): 76.7425 and 75.484 and 113.203 and 99.7613 and 81.3458 and 84.3089 and 102.68 and 108.689; TOA (SARS-CoV-2; treatment window (-2,0)): 92.86 and 92.659 and 88.2304 and 87.5224 and 122.157 and 114.273 and 92.7843 and 93.347; TOA (SARS-CoV-2; treatment window (-2,2)): 31.6226 and 35.7452 and 33.0851 and 30.5839 and 34.705 and 34.7924 and 25.2067 and 23.5518; EC50 (SARS-CoV-2-nLUC [2]; VeroE6, 24 h): 8.86 µM; Replication (SARS-CoV-2-nLUC [2]; Tipifarnib, log concentration 0.273001): 115.708 and 115.2 and 116.296 and 113.383; Replication (SARS-CoV-2-nLUC [2]; Tipifarnib, log concentration 0.875061): 62.3306 and 62.0856 and 61.494 and 61.1331; Replication (SARS-CoV-2-nLUC [2]; Tipifarnib, log concentration -0.630089): 101.05 and 102.091 and 101.412 and 103.944; Replication (SARS-CoV-2-nLUC [2]; Tipifarnib, log concentration -1.23215): 100.484 and 100.389 and 101.92 and 99.313; CC50 at 24 h (in vitro): > 30 µM
CN(C)C(=O)COC(=O)Cc1ccc(OC(=O)c2ccc(NC(=N)N)cc2)cc1 [camostat]				time-of-addition result (SARS-CoV-2): only E64d, and not camostat, was effective in blocking the entry step
